Experimental data as given in patent US7115655B2, “Pyranocoumarin derivatives” (Elcom Biotechnology, Co. Ltd., priority 2002, dated 2006).
Where two headings read alike, the source gives them in different places.

Key:
[1] = target: T1, AChE (Electric eel Type V-S, Sigma) (Electrophorus electricus, UniProt O42275); assay: biochemical; type: biochemical
T1 construct: purchased Sigma Type V-S
Description: AChE inhibitory activity of the methanolic extract and CH2Cl2 fraction of Angelica gigas of the above Example 1 was measured by the method of Ellman et al. (Ellman, et al. (1961) A new and rapid colorimetric determination of acetylcholinesterase activity, Biochem. Pharmacol. 7: 88–95).
(§1) To a test tube containing a chromogen (5,5-dithiobis-2-nitrobenzoic acid) and a sample was added AChE homogenated with phosphate buffered saline (Electric eel Type V-S, Sigma), and a reaction was performed at 37° C. for 5 minutes, and thereto was added a substrate for the enzyme, […], and a reaction was further performed at 37° C. for 3 minutes. Neostigmine bromide was added thereto to terminate the reaction, and then, the absorbance was measured at 412 nm to obtain AChE inhibition (%). The above procedure was repeated with no AChE as a blank, or with no sample as a control.
AChE inhibitory activity of decursin of the above Example 2 and Compound 3 of the above Example 3 was measured according to the method in Experiment 1.
as §1, with “minutes. The above procedure was repeated with no AChE as a blank or with no sample as a control.” for “minutes.”, “obtain IC50 of” for “obtain”, “inhibition.” for “inhibition (%). The above procedure was repeated with no AChE as a blank, or with no sample as a control.”

[2] = test system: mice with scopolamine-induced amnesia; assay: Passive avoidance test in mice with scopolamine-induced amnesia; type: in vivo, Male ICR mice; settings: for cognition-enhancing activity in passive avoidance test, in words: mice with scopolamine-induced amnesia
Excerpt: Male ICR mice weighing 25 to 30 g that had been bred with sufficient water and feed in the Experimental Animal Breeding Center of Seoul National University were supplied and adapted to the laboratory environment for 1 week to be used in this experiment.
An avoidance box (40×20×20 cm) equipped with 3 mm stainless steel rod spaced 0.5 cm apart at the bottom was divided into a light compartment and a dark compartment, and when mice placed in the light compartment entered the dark compartment, an electrical shock (0.1 mA/10 g body weight) was delivered through the stainless steel rods. The above procedure was repeated after 24 hours, and the time for which the mice stayed at the light compartment was measured and used as an index of memorizing the training of the previous day. Passive avoidance test was performed according to the method of Christensen et al. (Cholinergic ‘Blockade’ as a model of the cognitive deficits in Alzheimer's disease, Brain 115: 1681–1699, 1992). Specifically, scopolamine was dissolved in physiological saline to 1.5 mg/kg solution, and the solution was subcutaneously injected to mice 30 minutes before the training to induce amnesia. The Angelica gigas extract was intraperitoneally injected to the mice 1 hour before the scopolamine administration, and observed for its effect on the scopolamine-induced amnesia.
Passive avoidance test was performed according to the method of the above Experiment 1(2) to measure effects of pyranocoumarin derivatives of the present invention. Velnacrine (AChE inhibitor) was used as a positive control.

[3] = Table 4, 1 mg/kg + scopolamine 1.5 mg/kg, Mean ± S.D.
[4] = Table 4, 5 mg/kg + scopolamine 1.5 mg/kg, Mean ± S.D.
[5] = read-out: IC50 of AChE inhibition

T1 sequence (O42275 24-633): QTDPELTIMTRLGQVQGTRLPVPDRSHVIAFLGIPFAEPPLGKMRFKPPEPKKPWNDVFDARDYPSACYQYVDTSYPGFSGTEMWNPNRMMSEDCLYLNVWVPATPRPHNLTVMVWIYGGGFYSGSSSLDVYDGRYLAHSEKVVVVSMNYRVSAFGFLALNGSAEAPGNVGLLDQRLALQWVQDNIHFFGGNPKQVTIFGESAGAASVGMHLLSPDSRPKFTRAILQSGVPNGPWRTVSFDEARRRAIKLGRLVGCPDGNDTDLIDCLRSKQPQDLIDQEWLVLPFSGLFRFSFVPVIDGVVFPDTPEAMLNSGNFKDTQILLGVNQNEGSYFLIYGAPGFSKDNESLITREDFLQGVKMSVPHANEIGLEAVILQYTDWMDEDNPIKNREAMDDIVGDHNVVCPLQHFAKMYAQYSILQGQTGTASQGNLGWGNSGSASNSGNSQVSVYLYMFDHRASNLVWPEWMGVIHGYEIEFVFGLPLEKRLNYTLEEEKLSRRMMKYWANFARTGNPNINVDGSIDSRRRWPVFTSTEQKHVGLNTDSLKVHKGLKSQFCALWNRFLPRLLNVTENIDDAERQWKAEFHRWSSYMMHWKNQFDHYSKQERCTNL

| SMILES | AChE inhibitory activity, comparison in words [1] | Step-through latency [2, 3] [s] | Step-through latency [2, 4] [s] | cognition-enhancing activity in passive avoidance test, in words [2] | IC50 [1, 5] [µM] | further results |
| --- | --- | --- | --- | --- | --- | --- |
| CC(C)=CC(=O)O[C@H]1Cc2cc3ccc(=O)oc3cc2OC1(C)C [Compound 1, decursin] | better AChE inhibitory activity than decursinol | 108.6 ± 15.0 | 96.5 ± 18.2 | excellent cognition-enhancing activity | – | IC50 [1]: 480 µM; Step-through latency ([2]; Table 4, 0.5 mg/kg + scopolamine 1.5 mg/kg, Mean ± S.D.): 32.1 ± 13.4 s |
| CC1(C)Oc2cc3oc(=O)ccc3cc2C[C@@H]1O [Compound 2, decursinol, reference compound] | – | 52.1 ± 8.8 | 54.4 ± 10.6 | did not show such activity | 28 | Step-through latency ([2]; Table 4, 10 mg/kg + scopolamine 1.5 mg/kg, Mean ± S.D.): 43.2 ± 7.7 s |
| COc1ccc(/C=C/C(=O)OC2Cc3cc4ccc(=O)oc4cc3OC2(C)C)cc1 (stereo not drawn) [Compound 3] | better AChE inhibitory activity than decursinol | – | – | excellent cognition-enhancing activity | 51 | Step-through latency ([2]; Table 5, 1 mg/kg + scopolamine 1.5 mg/kg, Mean ± S.D.): 42.0 ± 17.9 s; Step-through latency ([2]; Table 5, 2 mg/kg + scopolamine 1.5 mg/kg, Mean ± S.D.): 86.0 ± 18.2 s; Step-through latency ([2]; Table 5, 5 mg/kg + scopolamine 1.5 mg/kg, Mean ± S.D.): 171.2 ± 18.7 s |
| CN1[C@@H]2C[C@@H](OC(=O)[C@H](CO)c3ccccc3)C[C@H]1[C@@H]1O[C@@H]12 [Scopolamine, scopolamine, reference compound] | – | – | – | – | – | Step-through latency ([2]; Table 2, scopolamine alone 1.5 mg/kg s.c. (amnesia induction), saline 158.8 ± 27.6): 29.7 ± 3.1 s; Step-through latency ([2]; Table 4, scopolamine alone 1.5 mg/kg s.c. (amnesia induction), saline 172.0 ± 16.0): 29.7 ± 2.8 s; Step-through latency ([2]; Table 5, scopolamine alone 1.5 mg/kg s.c. (amnesia induction), saline 179.7 ± 0.6): 28.4 ± 10.1 s |
| Nc1c2c(nc3ccccc13)CCCC2O (stereo not drawn) [velnacrine, Velnacrine, reference compound] | – | 73.4 ± 6.4 | – | – | – | – |
